Measured values reported in ChEMBL document CHEMBL1909046, “DrugMatrix in vitro pharmacology data”.

Key:
[1] = DRUGMATRIX: Calcium Channel Type L, Phenylalkylamine radioligand binding (ligand: [3H] (-)-Desmethoxyverapamil (D-888)); assay type: cell membranes, Rattus norvegicus, Wistar, Brain, Membrane; details: Not Active = under 50% inhibition at 10 µM
[2] = DRUGMATRIX: Sigma2 radioligand binding (ligand: [3H] Ifenprodil); assay type: cell membranes, Rattus norvegicus, Wistar, Brain, Membrane; details: Not Active = under 50% inhibition at 10 µM
[3] = biological target: Cytochrome P450 2C9 (Homo sapiens, UniProt P11712); details: bti-tn-5b1-4; note: in other assays of this panel Not Active means under 50% inhibition at 10 µM
Sequence of Cytochrome P450 2C9 (P11712 whole entry): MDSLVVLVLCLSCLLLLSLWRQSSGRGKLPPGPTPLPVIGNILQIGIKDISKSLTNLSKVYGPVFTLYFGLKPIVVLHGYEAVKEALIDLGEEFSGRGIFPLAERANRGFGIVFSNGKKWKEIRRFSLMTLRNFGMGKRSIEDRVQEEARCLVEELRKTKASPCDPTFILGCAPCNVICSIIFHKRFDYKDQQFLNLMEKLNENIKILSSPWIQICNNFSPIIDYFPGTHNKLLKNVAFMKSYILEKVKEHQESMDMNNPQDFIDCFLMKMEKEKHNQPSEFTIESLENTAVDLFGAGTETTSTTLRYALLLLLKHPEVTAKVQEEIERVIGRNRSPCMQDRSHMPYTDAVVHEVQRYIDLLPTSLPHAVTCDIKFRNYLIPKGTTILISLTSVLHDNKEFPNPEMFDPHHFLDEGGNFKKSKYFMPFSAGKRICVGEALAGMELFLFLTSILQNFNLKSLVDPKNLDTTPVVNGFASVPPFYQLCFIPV

[4] = biological target: 5-hydroxytryptamine receptor 2B (Homo sapiens, UniProt P41595); assay type: cell membranes, CHO-K1, Membrane; note: in other assays of this panel Not Active means under 50% inhibition at 10 µM
Sequence of 5-hydroxytryptamine receptor 2B (P41595 whole entry): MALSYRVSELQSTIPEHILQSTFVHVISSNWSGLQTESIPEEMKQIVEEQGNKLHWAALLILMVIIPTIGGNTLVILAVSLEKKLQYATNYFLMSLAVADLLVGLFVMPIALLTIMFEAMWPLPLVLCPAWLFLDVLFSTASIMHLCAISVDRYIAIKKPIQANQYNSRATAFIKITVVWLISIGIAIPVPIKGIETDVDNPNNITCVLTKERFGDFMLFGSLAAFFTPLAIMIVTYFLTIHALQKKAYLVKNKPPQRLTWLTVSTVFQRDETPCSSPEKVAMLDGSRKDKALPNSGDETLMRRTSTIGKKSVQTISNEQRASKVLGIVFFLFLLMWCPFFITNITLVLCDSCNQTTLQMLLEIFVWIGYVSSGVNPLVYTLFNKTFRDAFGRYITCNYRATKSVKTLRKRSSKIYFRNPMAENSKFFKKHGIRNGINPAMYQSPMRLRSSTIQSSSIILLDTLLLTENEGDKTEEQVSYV

[5] = biological target: T1, Adenosine receptor A1 (Homo sapiens, UniProt P30542); assay type: cell membranes, CHO, Membrane; details: cho;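 note: radioligand binding assay at the adenosine A1 receptor, with DPCPX serving as the labelled ligand; in other assays of this panel Not Active means under 50% inhibition at 10 µM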
T1 sequence (P30542 whole entry): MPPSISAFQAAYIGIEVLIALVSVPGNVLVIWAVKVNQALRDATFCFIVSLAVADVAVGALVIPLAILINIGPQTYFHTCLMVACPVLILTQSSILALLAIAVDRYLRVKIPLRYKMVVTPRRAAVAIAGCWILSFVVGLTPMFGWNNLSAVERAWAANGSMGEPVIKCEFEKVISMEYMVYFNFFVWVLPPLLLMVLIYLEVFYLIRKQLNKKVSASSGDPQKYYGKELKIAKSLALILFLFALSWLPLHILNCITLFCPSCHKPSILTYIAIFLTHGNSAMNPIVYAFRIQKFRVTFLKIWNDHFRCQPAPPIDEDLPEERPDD

[6] = DRUGMATRIX: Nicotinic Acetylcholine radioligand binding (ligand: [125I] Epibatidine); assay type: cell membranes, Membrane; details: imr-32; Not Active = under 50% inhibition at 10 µM

Row | Compound | IC50 [1] | Ki [1] | IC50 [2] | Ki [2] | IC50 [3] | Ki [3] | IC50 ([4]; cho-k1) | IC50 [5] | IC50 [6] | Ki [6] | IC50 ([4]; read-out: IC50) [nM] | Ki ([4]; read-out: Ki) [nM] | IC50 ([1]; read-out: IC50) [nM] | Ki ([1]; read-out: Ki) [nM] | IC50 ([2]; read-out: IC50) [nM] | Ki ([2]; read-out: Ki) [nM] | Ki ([4]; cho-k1) | Ki [5]
1 | CCCCC1=NC2(CCCC2)C(=O)N1Cc1ccc(-c2ccccc2-c2nnn[nH]2)cc1 [IRBESARTAN] | Not Active | Not Active | Not Active | Not Active | Not Active | Not Active | Not Active | Not Active | Not Active | Not Active |  |  |  |  |  |  |  | 
2 | CN1CCC(=C2c3ccccc3CC(=O)c3sccc32)CC1 [KETOTIFEN] | Not Active | Not Active | Not Active | Not Active | Not Active | Not Active |  | Not Active | Not Active | Not Active | 46 | 29 |  |  |  |  |  | 
3 | C[N+](C)(C)C[C@H](O)CC(=O)[O-] [LEVOCARNITINE] | Not Active | Not Active | Not Active | Not Active | Not Active | Not Active | Not Active | Not Active | Not Active | Not Active |  |  |  |  |  |  |  | 
4 | C[C@H]1COc2c(N3CCN(C)CC3)c(F)cc3c(=O)c(C(=O)O)cn1c23.C[C@H]1COc2c(N3CCN(C)CC3)c(F)cc3c(=O)c(C(=O)O)cn1c23.O [LEVOFLOXACIN] | Not Active | Not Active | Not Active | Not Active | Not Active | Not Active | Not Active | Not Active | Not Active | Not Active |  |  |  |  |  |  |  | 
5 | CCn1cc(C(=O)O)c(=O)c2cc(F)c(N3CCNC(C)C3)c(F)c21 (stereo unspecified) [LOMEFLOXACIN] | Not Active | Not Active | Not Active | Not Active | Not Active | Not Active | Not Active | Not Active | Not Active | Not Active |  |  |  |  |  |  |  | 
6 | CN1CCCC(CN2c3ccccc3Sc3ccccc32)C1 (stereo unspecified) [MEPAZINE] |  |  |  |  | Not Active | Not Active |  | Not Active | Not Active | Not Active | 514 | 327 | 1550 | 1500 | 631 | 388 |  | 
7 | Cc1cccc(C)c1NC(=O)C1CCCCN1C (stereo unspecified) [MEPIVACAINE] | Not Active | Not Active | Not Active | Not Active | Not Active | Not Active | Not Active | Not Active | Not Active | Not Active |  |  |  |  |  |  |  | 
8 | CN(C)C(=N)NC(=N)N [METFORMIN] | Not Active | Not Active | Not Active | Not Active | Not Active | Not Active | Not Active | Not Active | Not Active | Not Active |  |  |  |  |  |  |  | 
9 | C[C@]12CC[C@H]3[C@@H](CCC4=CC(=O)CC[C@@H]43)[C@@H]1CC[C@@H]2O [NANDROLONE] | Not Active | Not Active | Not Active | Not Active | Not Active | Not Active | Not Active | Not Active | Not Active | Not Active |  |  |  |  |  |  |  | 
10 | CN(C)C(=O)Oc1cccc([N+](C)(C)C)c1.[Br-] [NEOSTIGMINE BROMIDE] | Not Active | Not Active | Not Active | Not Active | Not Active | Not Active | Not Active | Not Active | Not Active | Not Active |  |  |  |  |  |  |  | 
11 | NC(=O)c1cccnc1 [NIACINAMIDE] | Not Active | Not Active | Not Active | Not Active | Not Active | Not Active | Not Active | Not Active | Not Active | Not Active |  |  |  |  |  |  |  | 
12 | CS(=O)(=O)Nc1ccc([N+](=O)[O-])cc1Oc1ccccc1 [NIMESULIDE] | Not Active | Not Active | Not Active | Not Active | Not Active | Not Active | Not Active | Not Active | Not Active | Not Active |  |  |  |  |  |  |  | 
13 | CN1C(=O)CN=C(c2ccccc2)c2cc([N+](=O)[O-])ccc21 [NIMETAZEPAM] | Not Active | Not Active | Not Active | Not Active | Not Active | Not Active | Not Active | Not Active | Not Active | Not Active |  |  |  |  |  |  |  | 
14 | C[C@@H]1O[C@@H](O[C@H]2C[C@@H](O)[C@]3(CO)[C@H]4[C@H](O)C[C@]5(C)[C@@H](C6=CC(=O)OC6)CC[C@]5(O)[C@@H]4CC[C@]3(O)C2)[C@H](O)[C@H](O)[C@H]1O [OUABAIN] | Not Active | Not Active | Not Active | Not Active | Not Active | Not Active | Not Active | Not Active | Not Active | Not Active |  |  |  |  |  |  |  | 
15 | NC(=O)N1c2ccccc2CC(=O)c2ccccc21 [OXCARBAZEPINE] | Not Active | Not Active | Not Active | Not Active | Not Active | Not Active | Not Active | Not Active | Not Active | Not Active |  |  |  |  |  |  |  | 
16 | COc1ccnc(C[S+]([O-])c2nc3ccc(OC(F)F)cc3[nH]2)c1OC (stereo unspecified) [PANTOPRAZOLE] | Not Active | Not Active | Not Active | Not Active | Not Active | Not Active | Not Active | Not Active | Not Active | Not Active |  |  |  |  |  |  |  | 
17 | CCc1ccc(CCOc2ccc(CC3SC(=O)NC3=O)cc2)nc1 (stereo unspecified) [PIOGLITAZONE] | Not Active | Not Active | Not Active | Not Active | Not Active | Not Active | Not Active | Not Active | Not Active | Not Active |  |  |  |  |  |  |  | 
18 | CCCNC(C)C(=O)Nc1ccccc1C (stereo unspecified) [PRILOCAINE] | Not Active | Not Active | Not Active | Not Active | Not Active | Not Active | Not Active | Not Active | Not Active | Not Active |  |  |  |  |  |  |  | 
19 | CCN(CC)CCNC(=O)c1ccc(N)cc1 [PROCAINAMIDE] | Not Active | Not Active | Not Active | Not Active | Not Active | Not Active | Not Active | Not Active | Not Active | Not Active |  |  |  |  |  |  |  | 
20 | CCN(CC)CCCC(C)Nc1c2ccc(Cl)cc2nc2ccc(OC)cc12 (stereo unspecified) [QUINACRINE] |  |  | Not Active | Not Active | Not Active | Not Active | Not Active | Not Active | Not Active | Not Active |  |  | 739 | 719 |  |  |  | 
21 | C[C@]12C=CC(=O)C=C1CC[C@H]1[C@@H]3C[C@@H](O)[C@](O)(C(=O)CO)[C@@]3(C)C[C@H](O)[C@@]12F [TRIAMCINOLONE] | Not Active | Not Active | Not Active | Not Active | Not Active | Not Active | Not Active | Not Active | Not Active | Not Active |  |  |  |  |  |  |  | 
22 | CC[C@]1(O)C[C@@H]2CN(CCc3c([nH]c4ccccc34)[C@@](C(=O)OC)(c3cc4c(cc3OC)N(C)[C@H]3[C@@](O)(C(N)=O)[C@H](O)[C@]5(CC)C=CCN6CC[C@]43[C@@H]65)C2)C1 [VINDESINE] | Not Active | Not Active | Not Active | Not Active | Not Active | Not Active | Not Active | Not Active | Not Active | Not Active |  |  |  |  |  |  |  | 
23 | CCN(C(C)=O)c1cccc(-c2ccnc3c(C#N)cnn23)c1 [ZALEPLON] | Not Active | Not Active | Not Active | Not Active | Not Active | Not Active | Not Active | Not Active | Not Active | Not Active |  |  |  |  |  |  |  | 
24 | COBALTOUS CHLORIDE | Not Active | Not Active | Not Active | Not Active | Not Active | Not Active | Not Active | Not Active | Not Active | Not Active |  |  |  |  |  |  | Not Active | Not Active
25 | COLISTIN | Not Active | Not Active | Not Active | Not Active | Not Active | Not Active | Not Active | Not Active | Not Active | Not Active |  |  |  |  |  |  | Not Active | Not Active
